Assay results as given in patent US20140271831A1, “RACECADOTRIL LIQUID COMPOSITIONS” (McNeil-PPC, Inc., priority 2013, published 2014).

Experiment: Racecadotril and degradation products over time in Acetate and Citrate at pH 3.6, 4.0, 4.5 (untitled table)
Format: physicochemical
Set-up: key to Impurity C / Impurity G: % peak area relative to the Racecadotril peak
Settings: Citrate; for RAC: in % (unit assumed)
Experimental: • 1. Pipet 1 mL of Racecadotril solution into a 100 mL volumetric flask (V.F.) • 2. Dilute to volume with the same buffer used in the solution preparation. • 3. […] Parameters may be modified to optimize chromatography. • The assay of Racecadotril is determined by using the external standard injected. The degradation products levels are determined by % peak area relative to the Racecadotril peak. [table] [table] Mobil Phase A: Phosphate buffer, pH 2.5 (Buffer prep: dissolve 1 g of potassium dihydrogen phosphate in water, adjust to pH 2.5 with phosphoric acid, dilute to 1000 mL with water) Mobil Phase B: 100% Acetonitrile

CC(=O)SCC(Cc1ccccc1)C(=O)NCC(=O)OCc1ccccc1 (racemic) [Racecadotril]
Benz Alcohol (pH 3.6, 1 week): 0.79% | Impurity C (pH 3.6, 1 week): 0.98 | Impurity G (pH 3.6, 1 week): 1.78 | Thiorphan (pH 3.6, 1 week): 0% | RAC (pH 3.6, 1 week): 96.45 | Benz Alcohol (pH 3.6, 2 week): 1.72% | Impurity C (pH 3.6, 2 week): 2.3 | Impurity G (pH 3.6, 2 week): 3.81 | Thiorphan (pH 3.6, 2 week): 0.13% | RAC (pH 3.6, 2 week): 92.01 | Benz Alcohol (pH 3.6, 3 week): 2.59% | Impurity C (pH 3.6, 3 week): 3.36 | Impurity G (pH 3.6, 3 week): 5.52 | Thiorphan (pH 3.6, 3 week): 0.31% | RAC (pH 3.6, 3 week): 88.22 | Benz Alcohol (pH 3.6, 4 week): 3.38% | Impurity C (pH 3.6, 4 week): 4.23 | Impurity G (pH 3.6, 4 week): 7.38 | Thiorphan (pH 3.6, 4 week): 0.47% | RAC (pH 3.6, 4 week): 84.51 | Benz Alcohol (pH 3.6, 6 week): 5.09% | Impurity C (pH 3.6, 6 week): 6.13 | Impurity G (pH 3.6, 6 week): 9.72 | Thiorphan (pH 3.6, 6 week): 1.11% | RAC (pH 3.6, 6 week): 77.91 | Benz Alcohol (pH 3.6, 8 week): 6.64% | Impurity C (pH 3.6, 8 week): 7.54 | Impurity G (pH 3.6, 8 week): 12.47 | Thiorphan (pH 3.6, 8 week): 1.8% | RAC (pH 3.6, 8 week): 71.51 | Benz Alcohol (pH 3.6, Initial): 0% | Impurity C (pH 3.6, Initial): 0 | Impurity G (pH 3.6, Initial): 0.09 | Thiorphan (pH 3.6, Initial): 0% | RAC (pH 3.6, Initial): 99.91 | Benz Alcohol (pH 4.0, 1 week): 0.89% | Impurity C (pH 4.0, 1 week): 1.23 | Impurity G (pH 4.0, 1 week): 1.95 | Thiorphan (pH 4.0, 1 week): 0% | RAC (pH 4.0, 1 week): 95.93 | Benz Alcohol (pH 4.0, 2 week): 1.41% | Impurity C (pH 4.0, 2 week): 1.82 | Impurity G (pH 4.0, 2 week): 3.47 | Thiorphan (pH 4.0, 2 week): 0.11% | RAC (pH 4.0, 2 week): 93.19 | Benz Alcohol (pH 4.0, 3 week): 2.36% | Impurity C (pH 4.0, 3 week): 2.82 | Impurity G (pH 4.0, 3 week): 4.79 | Thiorphan (pH 4.0, 3 week): 0.21% | RAC (pH 4.0, 3 week): 89.91 | Benz Alcohol (pH 4.0, 4 week): 2.79% | Impurity C (pH 4.0, 4 week): 3.43 | Impurity G (pH 4.0, 4 week): 6.57 | Thiorphan (pH 4.0, 4 week): 0.4% | RAC (pH 4.0, 4 week): 86.78 | Benz Alcohol (pH 4.0, 6 week): 4.19% | Impurity C (pH 4.0, 6 week): 4.98 | Impurity G (pH 4.0, 6 week): 9.24 | Thiorphan (pH 4.0, 6 week): 0.85% | RAC (pH 4.0, 6 week): 80.7 | Benz Alcohol (pH 4.0, 8 week): 5.54% | Impurity C (pH 4.0, 8 week): 6.22 | Impurity G (pH 4.0, 8 week): 11.26 | Thiorphan (pH 4.0, 8 week): 1.42% | RAC (pH 4.0, 8 week): 75.6 | Benz Alcohol (pH 4.0, Initial): 0% | Impurity C (pH 4.0, Initial): 0 | Impurity G (pH 4.0, Initial): 0 | Thiorphan (pH 4.0, Initial): 0% | RAC (pH 4.0, Initial): 100 | Benz Alcohol (pH 4.5, 1 week): 0.22% | Impurity C (pH 4.5, 1 week): 0.18 | Impurity G (pH 4.5, 1 week): 3.15 | Thiorphan (pH 4.5, 1 week): 0.01% | RAC (pH 4.5, 1 week): 96.44 | Benz Alcohol (pH 4.5, 2 week): 0.4% | Impurity C (pH 4.5, 2 week): 0.36 | Impurity G (pH 4.5, 2 week): 6.04 | Thiorphan (pH 4.5, 2 week): 0.03% | RAC (pH 4.5, 2 week): 93.19 | Benz Alcohol (pH 4.5, 3 week): 0.59% | Impurity C (pH 4.5, 3 week): 0.52 | Impurity G (pH 4.5, 3 week): 8.66 | Thiorphan (pH 4.5, 3 week): 0.06% | RAC (pH 4.5, 3 week): 90.2 | Benz Alcohol (pH 4.5, 4 week): 0.79% | Impurity C (pH 4.5, 4 week): 0.62 | Impurity G (pH 4.5, 4 week): 11.16 | Thiorphan (pH 4.5, 4 week): 0.1% | RAC (pH 4.5, 4 week): 87.41 | Benz Alcohol (pH 4.5, 6 week): 1.14% | Impurity C (pH 4.5, 6 week): 0.9 | Impurity G (pH 4.5, 6 week): 15.86 | Thiorphan (pH 4.5, 6 week): 0.17% | RAC (pH 4.5, 6 week): 82.05 | Benz Alcohol (pH 4.5, 8 week): 1.51% | Impurity C (pH 4.5, 8 week): 1.11 | Impurity G (pH 4.5, 8 week): 19.95 | Thiorphan (pH 4.5, 8 week): 0.29% | RAC (pH 4.5, 8 week): 77.34 | Benz Alcohol (pH 4.5, Initial): 0.02% | Impurity C (pH 4.5, Initial): 0.01 | Impurity G (pH 4.5, Initial): 0.19 | Thiorphan (pH 4.5, Initial): 0.01% | RAC (pH 4.5, Initial): 99.71
